Assay results reported in the NIST ThermoML archive (doi:10.1016/j.tca.2012.01.013).

Legend:
[1] = refractive index (Na D-line) (dimensionless); xn = mol fraction of the nth substance listed; details: 101 kPa, Liquid, Standard Abbe refractometry
[2] = xn = mol fraction of the nth substance listed; details: 101 kPa, Liquid, Vibrating tube method

COC(=O)c1ccccc1C(=O)OC [dimethyl 1,2-benzenedicarboxylate] + CCCCO
Details	mass density, [2] [kg/m3]	refractive index, [1]
288.15 K, x1 = 0.0997	877.193	1.42114
288.15 K, x1 = 0.1998	932.375	1.43796
288.15 K, x1 = 0.2994	980.153	1.45268
288.15 K, x1 = 0.3999	1022.54	1.4657
288.15 K, x1 = 0.5	1059.92	1.47709
288.15 K, x1 = 0.5985	1092.78	1.48663
288.15 K, x1 = 0.7001	1123.06	1.49584
288.15 K, x1 = 0.8016	1150.29	1.50398
288.15 K, x1 = 0.9002	1174.24	1.51118
288.15 K, x1 = 1	1196.26	1.51779
293.15 K, x1 = 0.0997	873.146	1.41907
293.15 K, x1 = 0.1998	928.143	1.43584
293.15 K, x1 = 0.2994	975.792	1.45052
293.15 K, x1 = 0.3999	1018.08	1.46353
293.15 K, x1 = 0.5	1055.37	1.47491
293.15 K, x1 = 0.5985	1088.17	1.48446
293.15 K, x1 = 0.7001	1118.42	1.49365
293.15 K, x1 = 0.8016	1145.63	1.50183
293.15 K, x1 = 0.9002	1169.57	1.50903
293.15 K, x1 = 1	1191.59	1.51565
298.15 K, x1 = 0.0997	869.077	1.41699
298.15 K, x1 = 0.1998	923.892	1.43374
298.15 K, x1 = 0.2994	971.414	1.44835
298.15 K, x1 = 0.3999	1013.6	1.46136
298.15 K, x1 = 0.5	1050.83	1.47274
298.15 K, x1 = 0.5985	1083.57	1.48227
298.15 K, x1 = 0.7001	1113.78	1.49148
298.15 K, x1 = 0.8016	1140.96	1.49966
298.15 K, x1 = 0.9002	1164.91	1.50689
298.15 K, x1 = 1	1186.93	1.51354
303.15 K, x1 = 0.0997	864.981	1.41489
303.15 K, x1 = 0.1998	919.619	1.43158
303.15 K, x1 = 0.2994	967.016	1.44618
303.15 K, x1 = 0.3999	1009.11	1.45918
303.15 K, x1 = 0.5	1046.26	1.47057
303.15 K, x1 = 0.5985	1078.96	1.4801
303.15 K, x1 = 0.7001	1109.14	1.48929
303.15 K, x1 = 0.8016	1136.31	1.49753
303.15 K, x1 = 0.9002	1160.25	1.50474
303.15 K, x1 = 1	1182.28	1.51146
308.15 K, x1 = 0.0997	860.864	1.41266
308.15 K, x1 = 0.1998	915.319	1.42932
308.15 K, x1 = 0.2994	962.593	1.44399
308.15 K, x1 = 0.3999	1004.6	1.45694
308.15 K, x1 = 0.5	1041.69	1.46834
308.15 K, x1 = 0.5985	1074.34	1.47795
308.15 K, x1 = 0.7001	1104.49	1.4871
308.15 K, x1 = 0.8016	1131.65	1.49537
308.15 K, x1 = 0.9002	1155.59	1.50263
308.15 K, x1 = 1	1177.62	1.50943
313.15 K, x1 = 0.0997	856.701	1.41048
313.15 K, x1 = 0.1998	910.989	1.42712
313.15 K, x1 = 0.2994	958.146	1.4417
313.15 K, x1 = 0.3999	1000.06	1.45469
313.15 K, x1 = 0.5	1037.11	1.4662
313.15 K, x1 = 0.5985	1069.7	1.47585
313.15 K, x1 = 0.7001	1099.84	1.48507
313.15 K, x1 = 0.8016	1126.98	1.4933
313.15 K, x1 = 0.9002	1150.93	1.50061
313.15 K, x1 = 1	1172.97	1.50736
318.15 K, x1 = 0.0997	852.519	1.40835
318.15 K, x1 = 0.1998	906.628	1.42501
318.15 K, x1 = 0.2994	953.674	1.43965
318.15 K, x1 = 0.3999	995.51	1.45257
318.15 K, x1 = 0.5	1032.5	1.46395
318.15 K, x1 = 0.5985	1065.06	1.47376
318.15 K, x1 = 0.7001	1095.18	1.48299
318.15 K, x1 = 0.8016	1122.32	1.49121
318.15 K, x1 = 0.9002	1146.27	1.49853
318.15 K, x1 = 1	1168.32	1.50524
323.15 K, x1 = 0.0997	848.279	1.40609
323.15 K, x1 = 0.1998	902.232	1.42274
323.15 K, x1 = 0.2994	949.172	1.4375
323.15 K, x1 = 0.3999	990.935	1.45024
323.15 K, x1 = 0.5	1027.87	1.46165
323.15 K, x1 = 0.5985	1060.4	1.47156
323.15 K, x1 = 0.7001	1090.51	1.48083
323.15 K, x1 = 0.8016	1117.65	1.48906
323.15 K, x1 = 0.9002	1141.61	1.4964
323.15 K, x1 = 1	1163.67	1.5032

COC(=O)CCCCC(=O)OC [dimethyl 1,6-hexanedioate] + CCC(C)=O
Details	mass density, [2] [kg/m3]	refractive index, [1]
288.15 K, x1 = 0.1002	855.132	1.3909
288.15 K, x1 = 0.2002	893.327	1.39827
288.15 K, x1 = 0.3002	926.063	1.40453
288.15 K, x1 = 0.4004	954.409	1.40995
288.15 K, x1 = 0.5001	979.016	1.41452
288.15 K, x1 = 0.5999	1000.72	1.41853
288.15 K, x1 = 0.6998	1020.03	1.42204
288.15 K, x1 = 0.7994	1037.28	1.42515
288.15 K, x1 = 0.8997	1052.86	1.42797
288.15 K, x1 = 1	1066.79	1.4305
293.15 K, x1 = 0.1002	849.982	1.38847
293.15 K, x1 = 0.2002	888.227	1.39586
293.15 K, x1 = 0.3002	921.006	1.40221
293.15 K, x1 = 0.4004	949.39	1.40768
293.15 K, x1 = 0.5001	974.03	1.41229
293.15 K, x1 = 0.5999	995.763	1.41634
293.15 K, x1 = 0.6998	1015.1	1.41989
293.15 K, x1 = 0.7994	1032.37	1.42303
293.15 K, x1 = 0.8997	1047.98	1.42587
293.15 K, x1 = 1	1061.93	1.42842
298.15 K, x1 = 0.1002	844.812	1.38601
298.15 K, x1 = 0.2002	883.111	1.39346
298.15 K, x1 = 0.3002	915.937	1.39988
298.15 K, x1 = 0.4004	944.361	1.4054
298.15 K, x1 = 0.5001	969.035	1.41005
298.15 K, x1 = 0.5999	990.798	1.41416
298.15 K, x1 = 0.6998	1010.17	1.41774
298.15 K, x1 = 0.7994	1027.45	1.42091
298.15 K, x1 = 0.8997	1043.08	1.42378
298.15 K, x1 = 1	1057.06	1.42636
303.15 K, x1 = 0.1002	839.62	1.38348
303.15 K, x1 = 0.2002	877.976	1.39104
303.15 K, x1 = 0.3002	910.852	1.39751
303.15 K, x1 = 0.4004	939.32	1.4031
303.15 K, x1 = 0.5001	964.032	1.4078
303.15 K, x1 = 0.5999	985.828	1.41196
303.15 K, x1 = 0.6998	1005.23	1.41557
303.15 K, x1 = 0.7994	1022.54	1.41878
303.15 K, x1 = 0.8997	1038.19	1.42168
303.15 K, x1 = 1	1052.18	1.42429
308.15 K, x1 = 0.1002	834.401	1.38097
308.15 K, x1 = 0.2002	872.82	1.38859
308.15 K, x1 = 0.3002	905.75	1.39515
308.15 K, x1 = 0.4004	934.263	1.40079
308.15 K, x1 = 0.5001	959.015	1.40555
308.15 K, x1 = 0.5999	980.845	1.40974
308.15 K, x1 = 0.6998	1000.27	1.41341
308.15 K, x1 = 0.7994	1017.61	1.41667
308.15 K, x1 = 0.8997	1033.29	1.41961
308.15 K, x1 = 1	1047.31	1.42222
313.15 K, x1 = 0.1002	829.151	1.37832
313.15 K, x1 = 0.2002	867.64	1.38611
313.15 K, x1 = 0.3002	900.629	1.39277
313.15 K, x1 = 0.4004	929.193	1.39848
313.15 K, x1 = 0.5001	953.987	1.4033
313.15 K, x1 = 0.5999	975.853	1.40756
313.15 K, x1 = 0.6998	995.312	1.41126
313.15 K, x1 = 0.7994	1012.68	1.41455
313.15 K, x1 = 0.8997	1028.38	1.41751
313.15 K, x1 = 1	1042.43	1.42017
318.15 K, x1 = 0.1002	823.875	1.37568
318.15 K, x1 = 0.2002	862.438	1.38355
318.15 K, x1 = 0.3002	895.489	1.39031
318.15 K, x1 = 0.4004	924.104	1.39611
318.15 K, x1 = 0.5001	948.941	1.401
318.15 K, x1 = 0.5999	970.845	1.40532
318.15 K, x1 = 0.6998	990.336	1.40909
318.15 K, x1 = 0.7994	1007.74	1.41243
318.15 K, x1 = 0.8997	1023.47	1.41544
318.15 K, x1 = 1	1037.54	1.41819
323.15 K, x1 = 0.1002	818.564	1.37305
323.15 K, x1 = 0.2002	857.21	1.38103
323.15 K, x1 = 0.3002	890.33	1.38784
323.15 K, x1 = 0.4004	919.003	1.39374
323.15 K, x1 = 0.5001	943.887	1.39869
323.15 K, x1 = 0.5999	965.832	1.40307
323.15 K, x1 = 0.6998	985.36	1.40691
323.15 K, x1 = 0.7994	1002.79	1.4103
323.15 K, x1 = 0.8997	1018.55	1.41336
323.15 K, x1 = 1	1032.64	1.41614
